According to article PMC8890542, “Discovery of novel paeonol-based derivatives against skin inflammation in vitro and in vivo” (Journal of Enzyme Inhibition and Medicinal Chemistry, 2022):
Where two headings read alike, the source gives them in different places.

Tests used:
[1] = tested on: LPS-induced nitric oxide production in RAW264.7 cells; assay: LPS-induced NO production, Griess Reagent assay; assay type: cell-based, mouse; conditions: for Inhibitory activity on LPS-induced NO secretion, in words: 10 µM; for IC50: LPS (0.5 μg/mL) 24 h; for Inhibition rate±SD (%) against NO production / inhibition at 10 µM: compounds 10 μM, 1 h, then LPS (0.5 μg/mL) 24 h; for inhibition at 10 µM: read-out: Inhibition rate±SD (%) against NO production
Protocol: RAW264.7 cells (7 × 10^4 cells/well) were seeded into 48-well plate and used for experiments after 24 h. […] After 24 h collect cell supernatant, NO production was measured using Griess Reagent assay (Beyotime). Griess reagent were mixed at a ratio of 1:1, and reacted at room temperature for 15 min. Measurement of absorbance at […] with enzyme reader. At least three independent experiments were performed for the determination of IC50 values, which were shown as mean ± SD. All experimental data were analysed by using GraphPad Prism software, version 8.0 (GraphPad Inc.).

[2] = tested on: LO2 cells; assay: Cell viability assay (MTT), LO2; assay type: cell-based; conditions: 24 h, read-out: Cytotoxicity IC50 with LO2
[3] = tested on: RAW264.7 cells; assay: Cell viability assay (MTT), RAW264.7; assay type: cell-based, mouse; conditions: 24 h, read-out: Cytotoxicity IC50 with RAW264.7
Protocol: (§1) RAW264.7 cells (1 × 10^4 cells/well) were seeded into 96-well plate and used for experiments after 24 h. Compounds (4 µM, 20 µM and 100 µM) treated cell for 24 h. Forty microliters of MTT solution (5 mg/mL, Sigma-Aldrich) was then added and incubated for an additional 4 h. After 4 h, cell culture supernatants were removed and DMSO (150 µL) was added into per well for dissolving the resulting crystals. Shaking about 1 0 ∼ 15 min and the absorbance at 492 nm was measured by a microplate reader (MQX200, Bio-Tek, Winooski, VT). At least three independent experiments were performed for the determination of IC50 values, which were shown as mean ± SD. All experimental data were analysed by using GraphPad Prism software, version 8.0 (GraphPad Inc.).

[4] = Human liver microsomes stability assay in vitro; assay type: in vitro ADME
Protocol: The livers were homogenised initially in a Tris (0.1 M)/KCl (0.1 M)/EDTA (1 mM)/butylated sodium hydroxytoluene (BHT) (0.02 mM) buffer. Add 1.5 µL control/test compound B12 working solution to 238.5 µL liver microsome working solution, gently mix. Pre-incubate at 37 °C for 5 min. Start the reaction by adding 60 µL NADPH working solution. Mix by pipetting up and down. At each time point: 0, 5, 15, 30 and 60 min, remove 30 µL of reaction mixture to 300 µL of quenching solution. Vortex vigorously for ∼1 min and centrifuge at 4000 rpm at 4 °C for 15 min. Remove 100 µL of the supernatant and mixed with 100 µL distilled water for LC-MS/MS analysis.

[5] = biological target: T1, TOPK (Homo sapiens, UniProt Q96KB5); design: method as in PMID 17276892; conditions: 100 µM; cited from earlier work
T1 construct: endogenous in cells
T1 sequence (Q96KB5 1-322): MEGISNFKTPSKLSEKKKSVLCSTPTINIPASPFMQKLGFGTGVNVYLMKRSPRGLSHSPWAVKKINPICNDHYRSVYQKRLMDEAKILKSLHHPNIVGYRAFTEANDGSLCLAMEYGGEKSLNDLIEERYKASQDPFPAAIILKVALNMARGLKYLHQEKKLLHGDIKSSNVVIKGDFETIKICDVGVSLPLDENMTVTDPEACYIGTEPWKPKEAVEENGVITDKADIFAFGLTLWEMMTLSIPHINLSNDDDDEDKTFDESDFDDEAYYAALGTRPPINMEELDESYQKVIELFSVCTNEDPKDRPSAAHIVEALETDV

[6] = Cell viability assay (MTT), LO2; assay type: cell-based; conditions: human, LO2 cells, read-out: Cytotoxicity IC50 with LO2
[7] = tested on: LPS-induced HaCaT cells; assay: Hyperproliferation assay, LPS-stimulated HaCaT cells (MTT); assay type: cell-based, human; conditions: pre-treated 6 h, LPS 24 h
Protocol: HaCaT cells were seeded in 96-well plates and cultured at 37 °C in a humidified 5% CO2 atmosphere. When the cell confluency reached 60–70%, HaCaT cells were then starved in serum-free DMEM for 12 h before stimulated by 100 ng/mL LPS for 24 h to mimic hyperproliferative psoriatic keratinocytes. The cell viability was measured by MTT method. Results are expressed as the percentage survival of cells in the cell treated group and the untreated control group (without the tested compound and LPS).

[8] = biological target: T1, TOPK; design: method as in PMID 28404919; conditions: time- and dose-dependent, in vitro and in vivo; cited from earlier work
[9] = biological target: T1, TOPK; design: method as in earlier work; conditions: ref 16/17; cited from earlier work
[10] = Cell viability assay (MTT), RAW264.7; assay type: cell-based, mouse; conditions: mouse, RAW264.7 cells, read-out: Cytotoxicity IC50 with RAW264.7
Protocol: as §1

[11] = tested on: IMQ-induced psoriasis mouse model; assay: IMQ-induced psoriasis-like skin inflammation mouse model; assay type: in vivo, BALB/c mice; conditions: intragastric once a day, 7 days
Text: During treatment for 7 days, to score the severity of inflammation of mouse skin, an objective scoring system was developed based on the clinical psoriasis area and severity index. Erythema, scaling, and thickening were scored independently from 0 to 4 as follows: 0, none; 1, slight; 2, moderate; 3, marked; 4, very marked and weight loss. The cumulative score (erythema plus scaling plus thickening) served to indicate the severity of inflammation (scale 0 ∼ 12). On the 8th day, the mice were taken eyeball blood and back skin. One-half of the samples were immediately fixed in 4% paraformaldehyde and for haematoxylin and eosin (H&E) staining. The other samples were put in a −80 °C freezer. Before used, they were placed at room temperature for 30 min. After that, they were added 1 × PBS proportionally, homogenised and centrifuged. The supernatant was collected and used for ELISA assay and Western blot assay. […] The histological image was obtained using 3[sequence]’s Slide Converter (3[sequence], Hungary).

[12] = cited from earlier work

Row | Molecule | Inhibitory activity on LPS-induced NO secretion, in words [1] | IC50 [1] | Inhibition rate±SD (%) against NO production [1] | IC50 [2] | IC50 [3] | IC50 ([1]; Mus musculus) | inhibition at 10 µM ([1]; Mus musculus) | IC50 at 24 h [6] | IC50 at 24 h [10] | melting point | also measured
1 | 1–(5-acetyl-2-methoxyphenyl)-3–(2-fluorophenyl) urea [Compound B7] | weak to moderate inhibitory activity | > 10 µM | 15.69±4.15% | > 100 µM | > 100 µM | – | – | – | – | – | –
2 | 1–(5-acetyl-2-methoxyphenyl)-3–(4-methylbenzyl) urea [Compound C3] | – | > 10 µM | 30.23±4.56% | > 100 µM | > 100 µM | – | – | – | – | – | –
3 | COc1ccc2c(c1)[C@]13CCCC[C@@H]1[C@H](C2)N(C)CC3 [Dextromethorphan, reference compound] | – | – | – | – | – | – | – | – | – | – | CLhep ([4]; human): 0.822 L/h/kg; T1/2 ([4]; human liver microsomes): 39.5 min; microsomal CLint ([4]; human liver microsomes): 35.1 µL/min/mg
4 | 1–(5-acetyl-2-methoxyphenyl)-3–(4-methoxyphenyl) urea [Compound B10] | moderate inhibitory activity | > 10 µM | 5.03± 6.25% | > 100 µM | > 100 µM | – | – | – | – | – | –
5 | COc1ccc(C(C)=O)c(O)c1 [Pae, paeonol] | weak potencies | – | – | – | – | > 10 µM | 18.4 ± 1.84% | > 100 µM | > 100 µM | – | Expression of TOPK [5]: inhibit the expression of TOPK; Excessive proliferation of LPS-induced HaCaT cells [7]: did not have this effect; Phosphorylation levels of p38, JNKs, MSK1 and histone H2AX [8]: suppressed; Affinity for TOPK (MST) [9]: confirmed the affinity of paeonol for TOPK
6 | 1–(5-acetyl-2-methoxyphenyl)-3–(4-fluorophenyl) urea [Compound B6] | moderate inhibitory activity | > 10 µM | 24.15±6.18% | > 100 µM | > 100 µM | – | – | – | – | – | –
7 | C[C@@H]1C[C@H]2[C@@H]3CCC4=CC(=O)C=C[C@]4(C)[C@@]3(F)[C@@H](O)C[C@]2(C)[C@@]1(O)C(=O)CO [dexamethasone, reference compound] | – | – | – | – | – | – | – | – | – | – | Pathological reduction, H&E of skin tissue ([11]; 20 mg/kg): high pathological reduction; Experimental symptoms and PASI score ([11]; B12 20 and 40 mg/kg, Dex 20 mg/kg): significantly attenuated experimental symptoms and PASI score
8 | COc1ccc(C(C)=O)c(Oc2ccc(NC(=O)/C=C/c3cc(OC)c(OC)c(OC)c3)cc2)c1 [Compound 3] | – | – | – | – | – | – | – | – | – | – | Anti-inflammatory activity [12]: suitable anti-inflammatory activity
9 | COc1cc(O)c(C(C)=O)cc1N [Compound 2] | – | – | – | – | – | – | – | – | – | – | Anti-inflammatory activity ([12]; reported by Huang): strong anti-inflammatory activity
10 | COc1cc(O)c(C(C)=O)cc1[N+](=O)[O-] [Compound 1] | – | – | – | – | – | – | – | – | – | – | Anti-inflammatory activity ([12]; reported by Huang): strong anti-inflammatory activity
11 | 1–(5-acetyl-2-methoxyphenyl)-3–(4-fluorobenzyl) urea [Compound C4] | – | > 10 µM | 45.23±3.25% | > 100 µM | > 100 µM | – | – | – | – | – | –
12 | COc1cc(O)c(C(C)=O)cc1NC(=O)Nc1ccc(C)cc1 [Compound B4, 1–(5-acetyl-4-hydroxy-2-methoxyphenyl)-3-(p-tolyl) urea] | moderate inhibitory activity | – | – | – | – | 8.76 µM | 53.9 ± 4.12% | > 100 µM | > 100 µM | 218 to 219 °C | –
13 | COc1cc(O)c(C(C)=O)cc1NC(=O)Nc1ccccc1C [Compound B3, 1–(5-acetyl-4-hydroxy-2-methoxyphenyl)-3-(o-tolyl) urea] | weak to moderate inhibitory activity | – | – | – | – | > 10 µM | 47.2 ± 6.12% | > 100 µM | > 100 µM | 238 to 239 °C | –
14 | COc1cc(O)c(C(C)=O)cc1NC(=O)NC1CC1 [Compound A9, 1–(5-acetyl-4-hydroxy-2-methoxyphenyl)-3-cyclopropylurea] | – | – | – | – | – | > 10 µM | 41 ± 3.15% | > 100 µM | > 100 µM | 191 to 192 °C | –
15 | COc1cc(O)c(C(C)=O)cc1NC(=O)NCc1ccco1 [Compound C7, 1–(5-acetyl-4-hydroxy-2-methoxyphenyl)-3-(furan-2-ylmethyl) urea] | – | – | – | – | – | > 10 µM | 26.2 ± 5.13% | > 100 µM | > 100 µM | 231 to 232 °C | –
16 | COc1cc(O)c(C(C)=O)cc1NC(=O)N(C(C)C)C(C)C [Compound A3, 3–(5-acetyl-4-hydroxy-2-methoxyphenyl)-1,1-diisopropylurea] | – | – | – | – | – | > 10 µM | 15.4 ± 3.15% | > 100 µM | > 100 µM | 148 to 149 °C | –
